Tests used:
[1] = target: T1, human recombinant 15-PGDH (Homo sapiens, UniProt P15428); experiment: Recombinant 15-PGDH enzymatic inhibition assay (PGDH-Lumi, NADH signal); assay type: biochemical; settings: recombinant 15-PGDH; 15 min pre-incubation, 60 min reaction with PGE2 and NAD+, NADH signal
T1 sequence (P15428 1-266): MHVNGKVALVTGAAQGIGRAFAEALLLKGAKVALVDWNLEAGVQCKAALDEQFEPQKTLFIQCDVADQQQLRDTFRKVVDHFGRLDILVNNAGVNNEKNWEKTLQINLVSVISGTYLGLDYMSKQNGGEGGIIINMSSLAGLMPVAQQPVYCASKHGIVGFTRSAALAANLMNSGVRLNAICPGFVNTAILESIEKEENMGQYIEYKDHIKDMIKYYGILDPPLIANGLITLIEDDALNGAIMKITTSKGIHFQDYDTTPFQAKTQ
Protocol: These assays measured 15-PGDH enzymatic activity by quantifying the amount of NADH produced during a 60-minute reaction initiated by the addition of PGE2 and NAD+. Under the conditions of these experiments, the increase of NADH signal upon oxidation of PGE2 and reduction of NAD+ was linearly proportional to 15-PGDH enzymatic activity. The recombinant human, mouse, rat and dog 15-PGDH enzymatic assays were performed in a 25 μL volume of reaction buffer containing 50 mM Tris, pH 7.5, 0.01% Tween-20 and […] DTT in a 384-well microtiter plate. In concentration-response experiments with tested compounds, 22 concentrations from 2-fold serial dilutions in DMSO were pre-incubated with 15-PGDH for 15 minutes at room temperature. Then, PGE2 and β-NAD+ were added to initiate the 15-PGDH reaction. After 60 minutes at room temperature, the reaction was quenched and NADH signal was measured using a microtiter plate reader.
The following data (Table 27-1) provides the IC50 in μM of each compound for inhibiting enzymatic activity of the recombinant 15-PGDH in the assay described above.

15-PGDH in A549 cells = target: T2, 15-PGDH in A549 cells (Homo sapiens, UniProt P15428); experiment: A549 cellular 15-PGDH assay (PGE2 accumulation, HTRF); assay type: cell-based; settings: interleukin-stimulated, inhibitor 24 hrs, PGE2 by competitive HTRF, read-out: A549 Cell Assay IC50
T2 construct: endogenous in cells; host or cells: A549
T2 sequence (P15428 1-266): T1 sequence (P15428 1-266)
Excerpt: This assay was used for the quantification of IL-13 induced Native Prostaglandin E2 (PGE2) produced by A549 cells (epithelial cells from lung carcinoma) in cell culture supernatants. […] PGE2 was detected in a competitive HTRF assay by using anti PGE2 antibody labeled with Europium cryptate, and PGE2 labeled with […]. The PGE2 present in the sample competes with the binding between the two HTRF detection solutions (reagents) and thereby prevents FRET from occurring. The specific signal is inversely proportional to the PGE2 concentration. From this binding data, IC50 values were calculated.

Structure (SMILES)	IC50 [1] [nM]	IC50 (15-PGDH in A549 cells) [nM]
Cn1cc2cc(-c3ncc4cc([C@]5(O)C[C@@H](C(F)F)C5)sc4n3)cnc2n1 [Compound C80C, cis-3-(difluoromethyl)-1-(2-(2-methyl-2H-pyrazolo[3,4-b]pyridin-5-yl)thieno[2,3-d]pyrimidin-6-yl)cyclobutanol]	0.771	1.26
Cn1nnc2cc(-c3ncc4cc([C@]5(O)C[C@@H](OC(F)(F)F)C5)sc4n3)cnc21 [Compound C111C, cis-1-(2-(3-methyl-3H-[1,2,3]triazolo[4,5-b]pyridin-6-yl)thieno[2,3-d]pyrimidin-6-yl)-3-(trifluoromethoxy)cyclobutanol]	1.09	3.95
O[C@]1(c2cc3cnc(-c4ccc5nccnc5c4)nc3s2)C[C@H](C(F)(F)F)C1 [Compound C123C, cis-1-(2-(6-quinoxalinyl)thieno[2,3-d]pyrimidin-6-yl)-3-(trifluoromethyl)cyclobutanol]	0.967	6.18
COC[C@H]1C[C@](O)(c2cc3ccc(-c4cnc5nn(C)cc5c4)nc3s2)C1 (single isomer, unassigned) [Compound C58C, cis-3-(methoxymethyl)-1-(6-(2-methyl-2H-pyrazolo[3,4-b]pyridin-5-yl)thieno[2,3-b]pyridin-2-yl)cyclobutanol]	0.889	0.519
Cn1cc2cc(-c3ccc4sc([C@]5(O)C[C@@](C)(C#N)C5)cc4n3)cnc2n1 (single isomer, unassigned) [Compound C106C, cis-3-hydroxy-1-methyl-3-(5-(2-methyl-2H-pyrazolo[3,4-b]pyridin-5-yl)thieno[3,2-b]pyridin-2-yl)cyclobutanecarbonitrile]	16.7	29.4
Cc1nc2cc(-c3ccc4cc([C@@H](O)C5CC(F)(F)C5)sc4n3)ccc2o1 (single isomer, unassigned) [Compound B46S]	2.1	17.4
O[C@@H](c1cc2ccc(-c3ccc4nccnc4c3)nc2s1)C1CC(F)(F)C1 (single isomer, unassigned) [Compound B52R]	0.291	0.69
Cc1n[nH]c2ccc(-c3ccc4cc([C@H](O)C5CCOCC5)sc4n3)cc12 (single isomer, unassigned) [Compound B40R]	7.16	–
Cn1nnc2cc(-c3ccc4cc([C@@H](O)C5CC(F)(F)C5)sc4n3)cnc21 [Compound B82S, (S)-(3,3-difluorocyclobutyl)(6-(3-methyl-3H-[1,2,3]triazolo[4,5-b]pyridin-6-yl)thieno[2,3-b]pyridin-2-yl)methanol]	1.65	–
Cc1cc2[nH]ncc2cc1-c1ccc2cc([C@@H](O)C3CCOCC3)sc2n1 (single isomer, unassigned) [Compound B38S]	1010	–
Cn1cc2cc(-c3cnc4sc([C@@H](O)C5CC(F)(F)C5)cc4n3)cnc2n1 [Compound B96S, (S)-(3,3-difluorocyclobutyl)(2-(2-methyl-2H-pyrazolo[3,4-b]pyridin-5-yl)thieno[2,3-b]pyrazin-6-yl)methanol]	3.1	–
O[C@H](c1cc2ccc(-c3ccc4[nH]ncc4c3)nc2s1)C1CCOCC1 (single isomer, unassigned) [Compound B37S]	1880	–
O[C@H](c1cc2ccc(-c3ccc4oncc4c3)nc2s1)C1CCOCC1 (single isomer, unassigned) [Compound B43S]	626	–
CC(C)[C@H](O)c1cc2ccc(-c3cnc4nn(C)cc4c3)nc2s1 (single isomer, unassigned) [Compound B24S]	15.9	–
Cn1nnc2cc(-c3ccc4cc([C@@H](O)C5CCOCC5)sc4n3)cnc21 (single isomer, unassigned) [Compound B41S]	151	–
O[C@]1(c2cc3cnc(-c4cnc5nncn5c4)nc3s2)C[C@H](C(F)(F)F)C1 [Compound C129C, cis-1-(2-([1,2,4]triazolo[4,3-a]pyrimidin-6-yl)thieno[2,3-d]pyrimidin-6-yl)-3-(trifluoromethyl)cyclobutanol]	3.5	–
COCC[C@H](O)c1cc2ccc(-c3cnc4nn(C)cc4c3)cc2s1 (single isomer, unassigned) [Compound B59S]	1100	–
CC(C)n1cc2cc(-c3ccc4cc([C@@H](O)C5CC(F)(F)C5)sc4n3)ccc2n1 (single isomer, unassigned) [Compound B56S]	18.3	–
Cn1cc2cc(-c3ccc4cc([C@@H](O)C5CCC(F)(F)CC5)sc4n3)cnc2n1 (single isomer, unassigned) [Compound B31S]	5.64	–
Cn1nc2cc(-c3ccc4cc([C@@H](O)C5CCOCC5)sc4n3)cnc2n1 (single isomer, unassigned) [Compound B39S]	184	–

Further lines, results first:

IC50 [1] [nM]	IC50 (15-PGDH in A549 cells) [nM]	Structure (SMILES)
0.832	1.35	Cc1nc2cc(-c3ccc4cc(C5(O)CC(F)(F)C5)sc4n3)cnc2[nH]1 [Compound C35, 3,3-difluoro-1-(6-(2-methyl-3H-imidazo[4,5-b]pyridin-6-yl)thieno[2,3-b]pyridin-2-yl)cyclobutanol]
7.12	31.9	CC(O)c1cc2c(C3CC3)cc(-c3cnc4nn(C)cc4c3)nc2s1 (stereo not shown) [Compound B11, 1-(4-cyclopropyl-6-(2-methyl-2H-pyrazolo[3,4-b]pyridin-5-yl)thieno[2,3-b]pyridin-2-yl)ethanol]
3.51	3.06	Cc1cn2ncc(-c3ccc4cc(C5(O)CC(F)(F)C5)sc4n3)cc2n1 [Compound C54, 3,3-difluoro-1-(6-(2-methylimidazo[1,2-b]pyridazin-7-yl)thieno[2,3-b]pyridin-2-yl)cyclobutanol]
52.1	26.7	Cn1cc2cc(-c3ccc4cc(C5(O)CC5)sc4n3)cnc2n1 [Compound C60, 1-(6-(2-methyl-2H-pyrazolo[3,4-b]pyridin-5-yl)thieno[2,3-b]pyridin-2-yl)cyclopropanol]
64.3	–	Cn1cc2cc(-c3cc(-c4ccnn4C)nc4sc(C(O)C5CCC5)cc34)cnc2n1 (stereo not shown) [Compound B3, cyclobutyl(4-(2-methyl-2H-pyrazolo[3,4-b]pyridin-5-yl)-6-(1-methyl-1H-pyrazol-5-yl)thieno[2,3-b]pyridin-2-yl)methanol]
555	–	CCC(O)(c1cc2ccc(-c3cnc4nn(C)cc4c3)nc2s1)C(F)(F)F (stereo not shown) [Compound C14, 1,1,1-trifluoro-2-(6-(2-methyl-2H-pyrazolo[3,4-b]pyridin-5-yl)thieno[2,3-b]pyridin-2-yl)-2-butanol]
419	–	Cn1cc2cc(-c3ccc4cc(C(C)(C)O)sc4n3)cnc2n1 [Compound C9, 2-(6-(2-methyl-2H-pyrazolo[3,4-b]pyridin-5-yl)thieno[2,3-b]pyridin-2-yl)-2-propanol]
17700	–	CC(O)c1cc2c(-c3ccnn3C)cc(-c3ccnn3C)nc2s1 (stereo not shown) [Compound B9, 1-(4,6-bis(1-methyl-1H-pyrazol-5-yl)thieno[2,3-b]pyridin-2-yl)ethanol]
257	–	Cn1cc2cc(-c3ccc4cc(C5(O)CCOCC5)sc4n3)cnc2n1 [Compound C22, 4-(6-(2-methyl-2H-pyrazolo[3,4-b]pyridin-5-yl)thieno[2,3-b]pyridin-2-yl)tetrahydro-2H-pyran-4-ol]
139	–	CC(O)c1cc2c(-c3cnc4nn(C)cc4c3)cc(-c3cnc4nn(C)cc4c3)nc2s1 (stereo not shown) [Compound B10, 1-(4,6-bis(2-methyl-2H-pyrazolo[3,4-b]pyridin-5-yl)thieno[2,3-b]pyridin-2-yl)ethanol]
78.4	–	CC(O)c1cc2c(-c3cnc4nn(C)cc4c3)cc(-c3ccnn3C)nc2s1 (stereo not shown) [Compound B5, 1-(4-(2-methyl-2H-pyrazolo[3,4-b]pyridin-5-yl)-6-(1-methyl-1H-pyrazol-5-yl)thieno[2,3-b]pyridin-2-yl)ethanol]
807	–	COCCC(O)(c1cc2ccc(-c3cnc4nn(C)cc4c3)nc2s1)C(F)(F)F (stereo not shown) [Compound C3, 1,1,1-trifluoro-4-methoxy-2-(6-(2-methyl-2H-pyrazolo[3,4-b]pyridin-5-yl)thieno[2,3-b]pyridin-2-yl)-2-butanol]
8.41	–	COCCC(O)c1cc2ccc(-c3cnc4nn(C)cc4c3)cc2s1 (stereo not shown) [Compound B59, 3-methoxy-1-(6-(2-methyl-2H-pyrazolo[3,4-b]pyridin-5-yl)-1-benzothiophen-2-yl)-1-propanol]
39.7	–	COC(c1cc2c(-c3ccnn3C)cc(-c3cnc4nn(C)cc4c3)nc2s1)C1CCC1 (stereo not shown) [Compound B4]
1260	–	Cn1cc2cc(-c3ccc4cc(C(O)(C5CC5)C(F)(F)F)sc4n3)cnc2n1 (stereo not shown) [Compound C17, 1-cyclopropyl-2,2,2-trifluoro-1-(6-(2-methyl-2H-pyrazolo[3,4-b]pyridin-5-yl)thieno[2,3-b]pyridin-2-yl)ethanol]
